Laboratory results as given in publication PMC11475570, “Impact of Optimized Ku–DNA Binding Inhibitors on the Cellular and In Vivo DNA Damage Response” (Cancers, 2024).

Tests used:
Ku70–Ku80 [1] = target: T1, Ku70–Ku80 (Homo sapiens, UniProt P12956+P13010); test: nanoDSF thermostability and aggregation; assay type: binding; conditions: Ku 5 µM, 5 µM 3392, up to 25 µM no additional change
T1 construct: made in house; host or cells: baculovirus-infected Sf9 cells
Description: The thermostability and aggregation propensity of Ku was assessed using a Prometheus Panta nanoDSF instrument (NanoTemper Technologies GmbH, München, Germany). High-sensitivity capillaries were filled with Ku (10 μL each, experiments in triplicate) at a concentration of 5 µM into the instrument. We titrated against ligand 3392 covering a concentration ranging from 0 to 30 µM with measurements collected at a 1 °C-per-minute scan rate from 25 to 95 °C. Thermal unfolding was assessed by the increase in intrinsic tryptophan fluorescence detected at 350 and 330 nm following excitation at 280 nm. Inflection points in the thermal denaturation curves were identified using the first derivatives of the ratio r = fluorescence (350 nm)/fluorescence (330 nm). We measured dynamic light scattering (DLS) and turbidity throughout the heating ramp using back reflection to characterize protein aggregation. We determined aggregation temperatures using turbidity variations and increases in particle sizes.

Ku70–Ku80 [2] = target: T1, Ku70–Ku80; test: Microscale thermophoresis (MST); assay type: binding; conditions: labeled Ku 5 nM, 5% DMSO, single-site fit
Description: Ku heterodimer was labeled using the Monolith NT™ Protein Labeling Kit RED-NHS (2nd generation amine reactive, NanoTemper Technologies GmbH, MO-L011, München, Germany), following the manufacturer’s protocol. Ku-DBi 3392 powder was resuspended in 100% DMSO, and the concentration was adjusted to 50 mM after UV absorbance measurement (absorbance at 417 nm with an extension coefficient equal to 15.2 mM^−1 cm^−1). The ligand stock solution was sonicated in an ultrasonic bath before preparations of the dilution series. The MST and Differential Scanning Fluorometry (DSF) assays contain 5% DMSO to fit the DMSO concentration at the highest ligand concentration (200 µM). The labeled protein (5 nM) was incubated with ligand 3392 ranging from 98 nM to 200 µM in a 12-point 1:1 dilution series. Protein–ligand solutions were incubated for 30 min at room temperature before MST measurements, which were performed in triplicate. Proteins were transferred to capillaries (Monolith NT. Automated Premium Capillary Chips), and binding was analyzed with a Monolith NT. Automated pico-RED device using MO. Control Software with nano-red excitation, LED light adjusted to 20% excitation power, and infrared laser (MST power) set to medium. The dissociation constants (KD) were determined with MO. […]

A549 cells [3] = test: γH2AX single-agent DNA damage (Western blot, immunofluorescence); assay type: cell-based, Human; conditions: Supplemental Figure S6
Excerpt: Supplementary Figure S6. GL-3392 single agent effect on DNA damage in NSCLC.
(A) Western blot analysis from A549 cells nuclear extracts. (B) Densitometric analysis of bands from western blot immunodetection. The original membranes can be found in File S1 (Appendix for Supplementary Figure S6A). (C) γH2AX expression levels dete rmined by Immunofluorescence. IF staining of DAPI nuclear staining (blue) and γH2AX (pS139) (red). Scale bars: 10µm. (D) Quantitation of integrated fluorescence intensity of γH2AX foci represented as the median of 300 nuclei per field. ns: not significant, ****p <0.0001 as calculated by one-way ANOVA with Dunnett’s multiple comparisons test. […]

Ku 70/80 = target: T2, Ku 70/80 (Homo sapiens, UniProt P12956+P13010); test: EMSA Ku–DNA binding inhibition; conditions: 32P-labeled 30-bp duplex DNA, purified Ku 70/80, mean and SD of triplicate
T2 construct: made in house; host or cells: baculovirus-infected Sf9 cells
Description: The inhibitory activity of Ku-DBis on Ku-DNA binding was evaluated in vitro using Electrophoretic mobility shift assays (EMSA) with a [^32P]-labeled 30-bp duplex DNA and purified Ku 70/80. Kinase assays were performed to measure the DNA-dependent transfer of [^32P] from γ-[^32P] ATP to a synthetic p53-based peptide substrate, both as previously described. Both EMSA and DNA-PK inhibitor titration assays were performed in triplicate. Data were fit to standard binding curves using GraphPad Prism to determine IC50 values.

H460 NSCLC cells = test: Cellular uptake by HPLC; assay type: in vitro ADME, Human; conditions: H460, 10 µM
Description: Cellular uptake was evaluated in two NSCLC cell lines, H460 and A549. Cells were seeded into 6-well plates at a density of 1 × 10^6 cells per well and cultured as monolayers at 37 °C and 5% CO2 for 18–24 h. Ku-DBis were added to the media at a concentration of 10 µM and incubation continued for the times indicated. Media were removed, cells were washed 3 times with PBS, 1 mL of methanol was added to each well, and cells were agitated overnight at 4 °C. The methanol was collected, and wells were washed with an additional 1 mL of methanol that was then pooled with the original. The methanol extracts were then dried under vacuum, resuspended in methanol, and analyzed by HPLC using a 250 × 4.6 and 5 μm C-18 reverse phase column with 1% TFA mobile phase in acetonitrile (ACN) gradient elution. Absorption was monitored at 425 nm, HPLC peaks were quantified using a standard curve, and picomoles of compound per million cells was calculated.

A549 cells [4] = test: Clonogenic survival in combination with IR; assay type: cell-based, Human; conditions: A549, 2 Gy
Description: (§1) NSCLC cells were seeded at 2 × 10^5 cells per well into 24-well plates and grown as monolayers at 37 °C and 5% CO2 in media one day before Ku-DBi or vehicle treatments. After 2 h, cells were placed on ice for 10 min and kept on ice during irradiation with either 2 or 5 Gy of 160 kVp X-rays using a Precision X-ray machine (North Branford, CT, USA) at a dose rate of 0.687 Gy/min. Radiation dosimetry measurements were performed using a Farmer-type ionization chamber (PTW Model N30013, Freiburg, Germany) in conjunction with a Keithley electrometer (Model K602, Cleveland, OH, USA). After irradiation, cells were incubated for 1 h at 37 °C, trypsinized, replated in 100 mm dishes, and incubated at 37 °C in 5% CO2. After 11 days, cells were carefully washed in PBS before fixing and staining in 0.5% crystal violet (Cat: C581-100, Fisher Scientific, Hampton, NH, USA) with 6% glutaraldehyde (Glutaraldehyde solution, 25%. Cat: O2957-1, Fisher Scientific) in PBS for 1 h at RT. The staining solution was removed, and cells were washed with water and air-dried. For clonogenic survival analysis, colonies containing more than 50 cells were manually counted and normalized to vehicle control conditions to determine surviving fractions.

H23 cells = test: Clonogenic survival in combination with IR; assay type: cell-based, Human
Description: as §1

T1 sequence (P12956 whole entry): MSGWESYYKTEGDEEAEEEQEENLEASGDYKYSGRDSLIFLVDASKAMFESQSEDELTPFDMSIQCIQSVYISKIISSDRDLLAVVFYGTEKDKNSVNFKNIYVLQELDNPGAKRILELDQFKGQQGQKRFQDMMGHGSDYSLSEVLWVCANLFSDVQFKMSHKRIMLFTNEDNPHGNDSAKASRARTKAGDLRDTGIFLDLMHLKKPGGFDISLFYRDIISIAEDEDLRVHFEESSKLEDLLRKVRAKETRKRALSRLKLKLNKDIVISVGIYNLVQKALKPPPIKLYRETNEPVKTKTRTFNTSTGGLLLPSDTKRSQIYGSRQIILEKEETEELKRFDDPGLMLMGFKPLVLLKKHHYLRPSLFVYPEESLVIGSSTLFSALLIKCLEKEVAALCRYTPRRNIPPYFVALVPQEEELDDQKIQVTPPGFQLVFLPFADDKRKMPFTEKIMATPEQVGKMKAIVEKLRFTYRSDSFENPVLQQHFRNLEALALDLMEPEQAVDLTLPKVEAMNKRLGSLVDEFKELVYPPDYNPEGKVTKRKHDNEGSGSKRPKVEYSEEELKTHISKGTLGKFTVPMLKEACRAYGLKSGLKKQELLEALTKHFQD
T1 sequence (P13010 whole entry): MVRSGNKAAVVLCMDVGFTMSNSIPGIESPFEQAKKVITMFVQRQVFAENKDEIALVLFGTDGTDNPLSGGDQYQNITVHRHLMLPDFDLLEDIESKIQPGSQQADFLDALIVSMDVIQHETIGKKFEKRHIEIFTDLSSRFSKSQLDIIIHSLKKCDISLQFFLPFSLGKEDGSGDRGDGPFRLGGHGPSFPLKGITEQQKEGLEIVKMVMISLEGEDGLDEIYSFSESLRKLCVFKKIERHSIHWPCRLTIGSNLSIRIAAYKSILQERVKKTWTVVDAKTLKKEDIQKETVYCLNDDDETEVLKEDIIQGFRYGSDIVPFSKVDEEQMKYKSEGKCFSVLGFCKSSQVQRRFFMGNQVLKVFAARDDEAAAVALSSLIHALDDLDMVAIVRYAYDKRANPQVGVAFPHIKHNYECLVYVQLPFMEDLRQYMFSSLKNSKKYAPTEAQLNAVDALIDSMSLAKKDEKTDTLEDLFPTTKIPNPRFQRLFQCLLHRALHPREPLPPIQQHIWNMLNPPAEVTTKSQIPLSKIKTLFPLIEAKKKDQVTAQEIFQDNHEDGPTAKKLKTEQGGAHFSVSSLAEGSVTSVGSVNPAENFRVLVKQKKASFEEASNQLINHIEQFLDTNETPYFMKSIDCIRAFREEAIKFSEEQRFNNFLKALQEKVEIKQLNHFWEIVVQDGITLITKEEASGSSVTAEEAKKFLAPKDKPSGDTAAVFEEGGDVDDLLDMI
T2 sequence (P12956 whole entry): as the sequence (P12956 whole entry) above
T2 sequence (P13010 whole entry): as the sequence (P13010 whole entry) above

## COc1ccc(-c2ccc(/C=C3\C(=O)N(c4cccc(C(=O)O)c4)c4ccccc43)o2)cc1C(=O)Nc1cccc(OC(F)(F)F)c1 [GL-3392]
Ku70–Ku80 [1]
  Thermal stability of Ku: induced a shift in thermal stability
Ku70–Ku80 [2]
  Kd: 2.1 ± 0.3 µM
A549 cells [3]
  Induction of direct DNA damage, single agent: cannot be attributed to induction of direct DNA damage
Ku 70/80
  IC50: 4.15 ± 1.07 µM
H460 NSCLC cells
  Uptake time course, initial rate and steady-state uptake: higher cellular levels than 3395
H460 NSCLC cells; media with 10% FBS
  Cellular uptake, fold more efficient than methoxy-derivatives 3395 and 3649: ~ 3 fold
A549 cells [4]
  Sensitivity in combination with IR, clonogenic survival: increased sensitivity when combined with a 2 Gy radiation dose
H23 cells; ATM-null H23, 2 Gy
  Sensitivity in combination with IR, clonogenic survival: minimal, statistically insignificant effect
H23 cells; ATM-null H23, 5 Gy
  Sensitivity in combination with IR, clonogenic survival: significantly sensitized
